EP1724268A1, “COMPOUND HAVING TGF-BETA INHIBITORY ACTIVITY AND PHARMACEUTICAL COMPOSITION CONTAINING SAME” (KIRIN BEER KABUSHIKI KAISHA, priority 2004, dated 2005)
Read-outs that look alike come from different tables or passages of the source.

System: TGFβ signal
Experiment: TGFβ signal inhibitory activity, (SBE)4-Luc reporter in A549 cells (Test Examples 1A and 1B)
Type: cell-based, human
Details: Homo sapiens
How it was run: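 Compounds at 3 µM and 10 µM (some 1 µM) were added with 2 ng/ml TGFβ-1 to A549 cells stably expressing an SBE-driven luciferase, then cultured 4 hr. Chemiluminescent luciferase signal gave % inhibition versus TGFβ-alone and no-TGFβ controls.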

[1] = A549, test compound 3 µM, TGFβ-1 2 ng/ml, 4 hr, Table 1A, read-out: TGFβ inhibition rate, %
[2] = A549, test compound 10 µM, TGFβ-1 2 ng/ml, 4 hr, Table 1A, read-out: TGFβ inhibition rate, %
[3] = A549, 3 µM, compounds of Reference Examples (Test Example 1B), read-out: TGFβ inhibition rate, %
[4] = A549, 10 µM, compounds of Reference Examples (Test Example 1B), read-out: TGFβ inhibition rate, %
[5] = A549, read-out: TGFβ inhibition rate, %
[6] = A549, test compound 3 µM, Reference Examples, Table 1B, read-out: TGFβ inhibition rate, %
[7] = A549, test compound 10 µM, Reference Examples, Table 1B, read-out: TGFβ inhibition rate, %

| SMILES | inhibition at 3 µM [3] | inhibition at 10 µM [4] | also measured |
| --- | --- | --- | --- |
| COc1cc2c(Oc3cc4cccnc4nc3-c3ccccc3)ccnc2cc1F [Compound 60, 3-(7-Fluoro-6-methoxy-quinolin-4-yloxy)-2-phenyl-[1,8]naphthyridine] | – | – | inhibition at 3 µM [1]: 76%; inhibition at 10 µM [2]: 100% |
| COc1cc2nccc(Oc3ccc(-n4ccnc4)cc3I)c2cc1OC [r171] | 11% | 76% | – |
| COc1cc2nccc(Sc3ccc4ccccc4n3)c2cc1OC [r420] | 2% | 62% | – |
| CCCOC(=O)c1cc2ccccc2cc1Oc1ccnc2cc(OCCCl)c(OC)cc12 [Compound r322] | 50% | 88% | – |
| CCCOC(=O)c1cc2ccccc2cc1Oc1ccnc2cc(OCCCCl)c(OC)cc12 [Compound r325] | 19% | 60% | – |
| COc1cc2nccc(Oc3cc(C)c(C)nc3-c3ccccn3)c2cc1OCc1ccccc1 [Compound 138, 3-(6-Benzyloxy-7-methoxy-quinolin-4-yloxy)-5,6-dimethyl-[2,2'] bipyridine] | – | – | inhibition at 3 µM [1]: 98%; inhibition at 10 µM [2]: 100% |
| Cc1ccc(Oc2ccnc3ccc(OCCN4CCOCC4)cc23)c(-c2ncccn2)n1 [Compound 209, 4-(6-Methyl-2-pyrimidin-2-yl-pyridin-3-yloxy)-6-(2-morpholin-4--yl-ethoxy)-quinoline] | – | – | inhibition at 3 µM [1]: 54% |
| COc1cc2nccc(Oc3ccc(C)cc3C(=O)c3ccccc3)c2cc1OC [r72] | – | – | inhibition at 3 µM [5]: 98% |
| COc1cc2ncnc(Oc3ccc(C)cc3C(=O)c3ccccc3)c2cc1OC [r161] | – | – | inhibition at 3 µM [6]: 25%; inhibition at 10 µM [7]: 83% |
| COc1cc2nccc(Oc3cc4c(cc3C(C)=O)CCC4)c2cc1OC [r182] | 57% | 96% | – |
| COc1cc2nccc(Oc3cc(C)c(C)nc3-c3cnccc3C)c2cc1OC [r435] | 29% | 79% | – |
| COc1cc2nccc(Oc3cc4cccnc4nc3C(C)(C)C)c2cc1OC [r426] | 100% | – | – |
| COc1cc2nccc(Oc3cc4cccnc4nc3-c3ccncc3)c2cc1OC [Compound 89, 3-(6,7-Dimethoxy-quinolin-4-yloxy)-2-pyridin-4-yl-[1,8]naphthyridine] | – | – | inhibition at 3 µM [1]: 36%; inhibition at 10 µM [2]: 77% |
| COc1cc2nccc(Oc3ccc(C)nc3-c3cccc(C(C)=O)c3)c2cc1OC [Compound r232] | 66% | 79% | – |
| COc1cc2nccc(Oc3cc(C)c(C)cc3C(C)=NO)c2cc1OC [Compound r195] | 99% | 100% | – |
| COc1cc2nccc(Oc3cc4ccccc4nc3CN(C(C)C)C(C)C)c2cc1OC [Compound r277, [3-(6,7-Dimethoxy-quinolin-4-yloxy)-quinolin-2-ylmethyl]-diisopropyl-amine] | 32% | 89% | – |
| COc1ccc(Oc2ccnc3cc(OC)c(OC)cc23)c(C(=O)NC2CCCCC2)c1 [Compound r112] | – | – | inhibition at 3 µM [6]: 44%; inhibition at 10 µM [7]: 91% |
| CCC(=O)c1cc(I)ccc1Oc1ccnc2cc(OC)c(OC)cc12 [Compound r47] | – | – | inhibition at 3 µM [6]: 45%; inhibition at 10 µM [7]: 98% |
| COc1cc2c(Oc3cc(C)c(C)nc3-c3ccccn3)ccnc2cc1O [Compound r338] | 92% | 100% | – |
| COc1cc2c(Oc3cc(C)c(C)nc3-c3cccc(C)n3)ccnc2cc1OCc1ccccc1 [Compound r442] | 70% | 100% | – |
| COc1cc2nccc(Oc3ccc(C)nc3-c3c(Cl)cccc3Cl)c2cc1OC [Compound r253] | 68% | 97% | – |
| Cc1ccc(Oc2ccnc3ccc(OCC4CCC4)cc23)c(-c2ncccn2)n1 [Compound 213, 6-Cyclobutylmethoxy-4-(6-methyl-2-pyrimidin-2-yl-pyridin-3-yloxy)-quinoline] | – | – | inhibition at 3 µM [1]: 98% |
| Cc1cc(Oc2ccnc3ccc(F)cc23)c(-c2ccccn2)nc1C [Compound 103, 3-(6-Fluoro-quinolin-4-yloxy)-5,6-dimethyl-[2,2']bipyridine] | – | – | inhibition at 3 µM [1]: 99%; inhibition at 10 µM [2]: 100% |
| COc1cc2nccc(Oc3cc4cccnc4nc3-c3ccccc3)c2cc1Br [Compound 132, 3-(6-Bromo-7-methoxy-quinolin-4-yloxy)-2-phenyl-[1,8]naphthyridine] | – | – | inhibition at 3 µM [1]: 98%; inhibition at 10 µM [2]: 100% |
| Cc1cc(Oc2ccnc3ccc(-c4cccc(N)c4)cc23)c(-c2ccccn2)nc1C [Compound 10, 3-[4-(5,6-Dimethyl-[2,2']bipyridin-3-yloxy)-quinolin-6-yl]-phenylamine] | – | – | inhibition at 3 µM [1]: 100%; inhibition at 10 µM [2]: 100% |
| COc1cc2c(Oc3cc4cccnc4nc3C)ccnc2cc1OCCN1CCCC(O)C1 (stereo not shown) [Compound r399] | 99% | 100% | – |
| CCCOC(=O)c1ccccc1Oc1ccnc2cc(OC)c(OC)cc12 [Compound r94] | – | – | inhibition at 3 µM [6]: 39%; inhibition at 10 µM [7]: 97% |

| SMILES | inhibition at 3 µM [3] | inhibition at 10 µM [4] | also measured |
| --- | --- | --- | --- |
| CCOC(=O)C1CCN(CCOc2cc3nccc(Oc4cc5ccccc5nc4C)c3cc2OC)CC1 [Compound r363] | 100% | 100% | – |
| COc1cc2c(Oc3cc(C)c(C)cc3C(C)=O)ccnc2cc1OCCCl [Compound r315] | 98% | 100% | – |
| Cc1cc2nccc(Oc3cc(C)c(C)nc3-c3ccccn3)c2cc1C [Compound 170, 3-(6,7-Dimethyl-quinolin-4-yloxy)-5,6-dimethyl-[2,2']bipyridine] | – | – | inhibition at 3 µM [1]: 98%; inhibition at 10 µM [2]: 100% |
| COc1cc2c(Oc3cc(C)c(C)nc3-c3ccc(C)cn3)ccnc2cc1OCCNCCO [r469] | 100% | – | – |
| COc1cc2nccc(Oc3c(OC)cccc3C(C)=O)c2cc1OC [Compound r30] | – | – | inhibition at 3 µM [6]: 0%; inhibition at 10 µM [7]: 61% |
| COc1cc2c(Oc3cc4ccccc4nc3C)ccnc2cc1OCCN1CCC(O)CC1 [Compound r364] | 100% | 100% | – |
| COc1cc2c(Oc3cc4ccccc4nc3C)ccnc2cc1OCCN1CCCC(C(N)=O)C1 (stereo not shown) [Compound r360] | 100% | 100% | – |
| COc1cc(OC)c(C(C)=O)c(Oc2ccnc3cc(OC)c(OC)cc23)c1 [r40] | – | – | inhibition at 3 µM [6]: 12%; inhibition at 10 µM [7]: 83% |
| COc1cc2nccc(Oc3ccc(C)nc3-c3ccncc3)c2cc1OC [Compound r263] | 82% | 99% | – |
| COc1cc2nccc(Oc3cc(C)c(C)cc3-c3ccccn3)c2cc1OC [Compound r169] | 99% | 100% | – |
| COc1cc2nccc(Oc3cc4cnccc4nc3C)c2cc1OC [r311] | 53% | 90% | – |
| COc1cc2ncnc(Oc3cc(C)c(C)nc3-c3cccnc3)c2cc1OC [Compound 48, 4-(5,6-Dimethyl-[2,3']bipyridinyl-3-yloxy)-6,7-dimethoxy-quinazoline] | – | – | inhibition at 1 µM (A549, test compound 1 µM, TGFβ-1 2 ng/ml, 4 hr, Table 1A, read-out: TGFβ inhibition rate, %): 28%; inhibition at 3 µM [1]: 64% |
| COc1ccc(Oc2ccnc3cc(OC)c(OC)cc23)c(C(C)=O)c1 [r177] | – | – | inhibition at 3 µM [5]: 94% |
| COc1cc2nccc(Oc3ccc(C)nc3-c3ccccc3Cl)c2cc1OC [Compound r228] | 88% | 100% | – |
| COc1cc2nccc(Oc3cc4ccncc4cc3Br)c2cc1OC [Compound r301, 4-(7-Bromo-isoquinolin-6-yloxy)-6,7-dimethoxy-quinoline] | 20% | 75% | – |
| COc1cc2c(Oc3cc4cccnc4nc3-c3ccccc3)ccnc2cc1C(N)=O [Compound 147, 6-Methoxy-4-(2-phenyl-[1,8]naphthyridin-3-yloxy)-quinoline-7-carboxylic acid amide] | – | – | inhibition at 3 µM [1]: 34%; inhibition at 10 µM [2]: 77% |
| COc1ccc(Oc2ccnc3cc(OC)c(OC)cc23)c(C(O)Cc2ccccn2)c1 (stereo not shown) [r166] | 24% | 67% | – |
| Cc1cc(Oc2ncnc3scc(C)c23)c(-c2ccccn2)nc1C [Compound 34, 5,6-Dimethyl-3-(5-methyl-thieno[2,3-d]pyrimidin-4-yloxy)-[2,2'] bipyridine] | – | – | inhibition at 3 µM [1]: 94%; inhibition at 10 µM [2]: 100% |
| COc1cc2c(Oc3ccc(C)cc3C(=O)c3ccccc3)ccnc2cc1OCCCCN1CCOCC1 [Compound r149] | – | – | inhibition at 3 µM [6]: 96%; inhibition at 10 µM [7]: 100% |
| COc1cc2nccc(Oc3ccccc3C(=O)c3ccccc3)c2cc1OC [Compound r63] | – | – | inhibition at 3 µM [5]: 57%; inhibition at 10 µM [5]: 91% |
| Fc1cc2nccc(Oc3cc4cccnc4nc3-c3ccccc3)c2c(F)c1F [Compound 102, 2-Phenyl-3-(5,6,7-trifluoro-quinolin-4-yloxy)-[1,8]naphthyridine] | – | – | inhibition at 3 µM [1]: 45%; inhibition at 10 µM [2]: 92% |
| COc1cc2c(Oc3cc4ccccc4nc3C)ccnc2cc1OCCNC(=N)N [Compound r356] | -2% | 54% | – |
| CCN(CC)CC(O)COc1cc2nccc(Oc3ccc(C)cc3C(=O)c3ccccc3)c2cc1OC (stereo not shown) [r153] | – | – | inhibition at 3 µM [6]: 100%; inhibition at 10 µM [7]: 100% |
| COc1cc2nccc(Oc3cc4ccncc4cc3-c3cccnc3)c2cc1OC [r304] | 26% | 64% | – |
| Clc1cc2nccc(Oc3cc4cccnc4nc3-c3ccccc3)c2cc1Cl [Compound 58, 3-(6,7-Dichloro-quinolin-4-yloxy).2-phenyl-[1,8]naphthyridine] | – | – | inhibition at 3 µM [1]: 83%; inhibition at 10 µM [2]: 100% |
| CCCOC(=O)c1cc(-c2ccc(F)cc2F)ccc1Oc1ccnc2cc(OC)c(OC)cc12 [Compound r96] | – | – | inhibition at 3 µM [6]: 19%; inhibition at 10 µM [7]: 65% |
